Test results: patent US20120009152A1, “NITRIC OXIDE DONORS FOR TREATMENT OF DISEASE AND INJURY” (priority 2002, published 2012)

Key:
[1] = system: rats subjected to middle cerebral artery occlusion (MCAo); experiment: Neurologic Severity Scale (NSS) after MCAo, combination study; type: in vivo, rat; settings: treatment 1 day after stroke; NN 0.4 mg/kg IP, hMSCs 1×10^6 cells iv; vs control (PBS)
Protocol: (§1) Male Wistar rats (n=32) were subjected to middle cerebral artery occlusion (MCAo) and were randomized with 8 rats in four treatment groups, with treatment initiated 1 day after stroke. Groups included: 1) phosphate buffered saline (PBS); 2) subtherapeutic DETA-NONOate (NN) at a dose of 0.4 mg/kg (IP); 3) subtherapeutic hMSCs (1×10^6 cells-iv); and 4) combination subtherapeutic NN and hMSCs. Functional outcome measurements consisted of a Neurologic Severity Scale (18 point scale) (NSS) and the Adhesive Removal Test performed prior to stroke, immediately before treatment and at 7 and 14 days after treatment. […] However, there was an overall hMSC effect on NSS at 14 days.

rat VEGF = experiment: ELISA for VEGF in ischemic boundary regions; type: in vivo; settings: control 13.4±1.5
Protocol: (§2) DETANONOate (0.4 mg/kg) was intravenously administered to rats (n=8) 24 hours after stroke and daily (i.p) for an additional 6 consecutive days. Ischemic rats (n=8) treated with the same volume of decayed DETANONOate were used as a control group. All rats were sacrificed 14 days after stroke. 2) To examine the effect of exogenous NO on brain levels of VEGF, DETANONOate (0.4 mg/kg) or saline was administered to ischemic rats (n=3 for each group) with the identical paradigm described in Protocol 1. These rats were sacrificed 7 days after stroke. […] Rats were sacrificed 14 days after stroke.
The ischemic boundary regions and homologous tissue in the contralateral hemisphere were dissected. The tissue was homogenized and centrifuged at 10,000 g for 20 min at 4° C. and the supernatant was collected. ELISA for VEGF in the supernatants was performed using a commercially available kit specific for rat VEGF (R&D, systems) according to the manufacture's instruction.

[2] = system: Mouse brain-derived endothelial cells; experiment: Capillary-like tube formation assay; type: cell-based
Protocol: An in vitro angiogenesis assay was performed. Briefly, 0.8 ml of growth factor reduced Matrigel (Becton Dickinson) was added to pre-chilled 35 mm culture dishes and allowed to polymerize at 37° C. for 2 to 5 hours. […] For quantitative measurements of capillary tube formation, three random areas of Matrigel dishes were imaged and the length of continuous cords of three or more cells was measured.

[3] = system: rats subjected to middle cerebral artery occlusion (MCAo); experiment: Volume of cerebral infarction after MCAo, combination study; type: in vivo, rat; settings: treatment 1 day after MCAo; NN 0.4 mg/kg IP, hMSCs 1×10^6 cells iv; no significant reduction vs PBS
Protocol: as §1
No significant reduction of volume of ischemic damage was detected in rats with hMSC (30.7±6.2%) or NONOate ([…]) and combination hMSCs with NONOate (28.7±6.7%) treatment, compared with control rats subjected to MCAo with PBS ([…]), hMSCs were identified immunohistochemically using an antibody specific for human chromosomes (MAB1281). Within the brain tissue, cells derived from hMSCs were characterized by MAB1281 staining. No MAB1281 positive cells were found in the non-hMSCs treated rats. MSCs identified by MAB1281 survived and were distributed throughout the damaged brain of recipient rats. […] The vast majority of MAB1281 positive hMSCs were located in the ischemic boundary zone.

[4] = system: cerebral vessels in the ischemic boundary regions; experiment: Angiogenesis in ischemic brain after embolic MCA occlusion (vascular perimeters, BrdU endothelial cells, three dimensional vessel analysis); type: in vivo, rat
Protocol: Male Wistar rats weighing 320-380 gm were employed. The middle cerebral artery (MCA) was occluded by placement of an embolus at the origin of the MCA.
as §2
Bromodeoxyuridine (BrdU, Sigma Chemical), the thymidine analog that is incorporated into the DNA of dividing cells during S-phase, was used for mitotic labeling. BrdU (50 mg/kg) was […] (i.p) daily for 13 consecutive days into ischemic rats starting 1 day after MCA occlusion.
To examine neovascularization in ischemic brain, fluorescein isothiocyanate (FITC) dextran (2×10^6 molecular weight, Sigma, St. Louis, Mo.; 0.1 ml of 50 mg/ml) was administered intravenously to the ischemic rats subjected to 14 days of MCAo. Ti brains were rapidly removed from the severed heads and placed in 4% of paraformaldehyde at 4° C. for 48 hours. Coronal sections (100 μm) were cut on a vibratome. The vibratome sections were analyzed with a Bio-Rad MRC 1024 (argon and krypton) laser-scanning confocal imaging system mounted onto a Zeiss microscope (Bio-Rad; Cambridge, Mass.), as previously described. Seven 100 μm thick vibratome coronal sections at 2 mm intervals from bregma 5.2 mm to bregma −8.8 mm from each animal injected with FITC-dextran were selected. Eight brain regions in the ipsilateral and contralateral hemispheres were selected within a reference coronal section (interaural 8.8 mm, bregma 0.8 mm). These regions were scanned in 512×512 pixel (276×276 μm^2) format in the x-y direction using a 4× frame-scan average and twenty-five optical sections along the z-axis with a 1 μm step-size were acquired under a 40× objective. Vascular branch points, segment lengths and diameters were measured in three dimensions using software developed in the laboratory. Image acquisition and analysis were performed blindly.
For BrdU immunostaining, DNA was first denatured by incubating brain sections (6 μm) in 50% formamide 2×SSC at 65° C. for 2 hours and then in 2N HCl at 37° C. for 30 minutes. Sections were then rinsed with tris buffer and treated with 1% of H2O2 to block endogenous peroxidase. Sections were incubated with a mouse monoclonal antibody (mAb) against BrdU (1:1000, Boehringer Mannheim, Indianapolis, Ind. overnight and incubated with biotinylated secondary antibody (1:200, Vector, Burlingame, Calif.) for 1 hour.
To quantify BrdU immunoreactive endothelial cells, numbers of endothelial cells and numbers of BrdU immunoreactive endothelial cells in ten enlarged vessels adjacent to the ischemic lesion were counted from each rat. Numbers of endothelial cells and BrdU immunoreactive endothelial cells in the ten vessels of the contralateral homologous area were also counted. Data are presented as percentage of BrdU immunoreactive endothelial cells to total endothelial cells in ten enlarged vessels from each rat.
Vascular perimeters were measured on coronal sections immunostained with an anti-von Willebrand factor antibody as previously described.

[5] = DETANONOate 0.4 mg/kg, three dimensional analysis

| SMILES | NSS at 14 days [1] | VEGF levels in the ischemic boundary regions (rat VEGF; DETANONOate 0.4 mg/kg from 24 h after stroke, 7 days after stroke, n=3) [pg/mL] | capillary-like tube formation ([2]; DETANONOate 0.2 μM, 3 hours, vs DMEM only) | volume of ischemic damage [3] [%] | vessel enlargement in the contralateral hemisphere ([4]; DETANONOate 0.4 mg/kg from 24 h after stroke for 7 days, 14 days after stroke) | vascular perimeters around the ischemic lesion ([4]; DETANONOate 0.4 mg/kg from 24 h after stroke for 7 days, 14 days after stroke, vs decayed DETANONOate control) | numbers of proliferated (BrdU immunoreactive) endothelial cells ([4]; DETANONOate 0.4 mg/kg from 24 h after stroke for 7 days, vs control) | capillary segment diameters [4, 5] | capillary segment lengths [4, 5] | numbers of capillary segments in the boundary regions of ischemia ([4]; DETANONOate 0.4 mg/kg, three dimensional analysis, vs decayed DETANONOate) | VEGF levels in the ischemic boundary (rat VEGF; Sildenafil treated ischemic rats, n=3 per group) [pg/mL] | capillary-like tube formation ([2]; Sildenafil 100 to 500 nM) | angiogenesis in ischemic brain ([4]; Sildenafil 2 mg/kg fed from 24 h after stroke, daily 7 days, 14 days after stroke) |
| --- | --- | --- | --- | --- | --- | --- | --- | --- | --- | --- | --- | --- | --- |
| NCCN(CCN)/[N+]([O-])=N/O [DETANONOate, (Z)-1-[N-(2-aminoethyl)-N-(2-ammonioethyl)aminio]diazen-1-ium-1,2-diolate] | No significant difference | 28.9 ± 1.0 | significant increase in capillary-like tube formation | 32.2±62 | did not enlarge vessels in the contralateral hemisphere | significantly (P<0.01) enlarged vascular perimeters | significantly (p<0.05) increased | significantly smaller diameters | shorter segment lengths | significantly (p<0.05) increased the numbers of capillary segments | – | – | – |
| CCCc1nn(C)c2c(=O)[nH]c(-c3cc(S(=O)(=O)N4CCN(C)CC4)ccc3OCC)nc12 [Sildenafil] | – | – | – | – | – | – | – | – | – | – | 34.4 ± 2.9 | concentration-dependent capillary-like tube formation | significant increase of angiogenesis |
